Literature values in patent US20030077302A1, “Diclofenamide suspension gel” (priority 2000, published 2003).

What was measured:
intraocular pressure = settings: rabbits
[1] = rabbits, topical suspensions

Compound | reduction of the intraocular pressure (intraocular pressure; topical aqueous solution) | reduction of the intraocular pressure compared with suspensions of the free acid of diclofenamide (intraocular pressure; topical solutions) | tolerability, single applications (rabbit, in vivo) | side effects, repeated use (rabbits, solutions, repeated use) | aqueous humor values compared with solutions of sodium diclofenamide [1]
NS(=O)(=O)c1cc(Cl)c(Cl)c(S(N)(=O)=O)c1 [diclofenamide sodium] | clear and long lasting reduction of the intraocular pressure | clearly stronger and longer reduction of the intraocular pressure | well tolerated | severe undesirable side effects | –
NS(=O)(=O)c1cc(Cl)c(Cl)c(S(N)(=O)=O)c1 [diclofenamide, 4,5-dichlorbenzene-1,3-disulfonamide] | – | – | – | – | clearly at a lower level
